Reference: patent publication US8026231B2, “Aminothiolester compounds, pharmaceutical and cosmetic compositions containing same and uses thereof” (CNRS, priority 2000, dated 2011)

Columns and labels:
BAF3 bcl2 cells = experiment: Growth of BAF3 bcl2 cells (viable cell count, Trypan blue); format: cell-based, murine; conditions: 50% inhibition of cell growth
Experimental: The cells used correspond to two cell lines: metastatic cells of human prostate cancer (DU145) and murine lymphoid cells transfected with the human bcl2 gene (BAF3 bcl2).
The procedure used for the tests on BAF3 bcl2 cells is as follows: • 10^5 cells are incubated in the various wells of a microplate in 1 ml of culture medium. After incubation for 4 hours, the test compounds are added to the wells containing the BAF3 bcl2 cells.
For the BAF3 bcl2 cells, the growth is measured by counting the viable cells in the presence of 0.1% Trypan blue. The control consists of thioampal, disclosed in patent application WO 98/44919.
The IC50 concentration is the concentration corresponding to a 50% inhibition of cell growth.

bcl2 H16 cells = experiment: DNA fragmentation of bcl2 H16 cells, 6 h incubation; format: cell-based, mouse
Experimental: (§1) The BAF3-bcl2 cells correspond to BAF3 cells (mouse lymphocyte cells) tranfected with the bcl2 gene. Among these cells, four lines known as H16, G18, B14 and G21 overexpress the bcl2 gene.
(§2) The procedure which was used is as follows: • The BAF3-b0 or BAF3-bcl2 cells, cultured in the presence of IL3, were labelled by a method adapted from that disclosed in Wright, S. et al., J. of Cell. Biochem. 48, 344-355, (1992).
(§3) 10^5 cells/ml were incubated with 4.62 KBq.ml^−1 [^3H]-thymidine for 40 hours at 37° C. After two washes with culture medium, 2.5×10^6 cells were cultured in the presence of the test compound.
(§4) After incubating for 24 hours, these cells were recovered by centrifugation at 400×g for 5 minutes and washed 3 times with PBS buffer. The cells recovered in the pellet were lysed in 2 ml of 0.1% Triton X-100, 20 mM EDTA, 5 mM Tris pH 8 and centrifuged at 30 000×g at 4° C. for 30 minutes.
(§5) The supernatants were recovered and the pellets dissolved in 0.3 ml of 0.5N NaOH.
(§6) Aliquots of the culture medium (1 ml), of the supernatant (0.3 ml) and of the dissolved pellet (0.1 ml) were assayed in a scintillation counter.
(§7) The percentage of DNA fragments is calculated in the following way:
(§8) The percentage of fragmentation of the DNA is a direct measure of the apoptosis which the cells have undergone.
The procedure for the test given in Table 4 below is identical to the previous procedure except that the incubation time is 6 hours instead of 24 hours: […]

L1210T cells = experiment: Growth of L1210T cells (L1210 bearing human ALDH1 cDNA); format: cell-based, mouse; conditions: 50% inhibition of growth
Experimental: The cells used correspond to various cell lines: human lung normal embryonic fibroblasts (MRC5), mouse melanoma cells (B16), mouse lymphocytic leukaemia cells (L1210) and L1210T cells obtained by infecting L1210 cells with a retroviral vector bearing human ALDH1 cDNA.
The procedure used for the tests on the L1210 cells is as follows: • 10^5 cells are incubated in the various wells of a microplate in 1 ml of culture medium. After incubating for 4 hours, the test compounds are added to the wells containing the L1210 cells.
For the L1210 cells, the growth is measured by counting the viable cells in the presence of 0.1% Trypan blue.
The IC50 concentration is the concentration corresponding to a 50% inhibition of growth of the cells.

BAF3-bcl2 G21 cells = experiment: Apoptosis induction (DNA fragmentation) in BAF3-bcl2 clone G21, 24 h; format: cell-based, mouse
Experimental: as §1
(§9) Whereas the BAF3-b0 cells undergo apoptosis (more than 80% of the cells) in the absence of interleukin 3 (IL3) in 16 hours [according to Collins, M. K. L., Marvel, J., Malde, P. & Lopez-Rivas, A., J. Exp. Med. 176, 1043-1051, (1992)], the BAF3-bcl2 cells show no sign of apoptosis in the absence of IL3. They are thus apoptosis-resistant.
as §2, §3, §4, §5, §6, §7, §8

K562 cells = experiment: Growth of K562 cells (control, no MDR overexpression); format: cell-based, human; conditions: increasing concentrations, 72 h, FIGS. 7 and 8
Experimental: 10^5 cells were incubated in the various wells of a microplate in 1 ml of culture medium. These are R7 cells, on the one hand, and K562 cells, on the other hand.
After incubating for 4 hours, the test compound (compound of Example 1 according to the invention, on the one hand, and daunorubicin, on the other hand) was added to the wells containing the cells.
After 72 hours, the cells were collected at different times.
The growth of the cells was measured by counting the viable cells in the presence of 0.1% Trypan blue.
FIGS. 7 and 8 respectively represent the percentage inhibition (I %) by daunorubicin and the compound of Example 1 on the growth of the R7 and K562 cells, obtained at increasing concentrations C. The results obtained with the K562 cells are symbolized by ♦ and those obtained with the R7 cells are symbolized by ▴.

BAF3-bcl2 G18 cells = experiment: Apoptosis induction (DNA fragmentation) in BAF3-bcl2 clone G18, 24 h; format: cell-based, mouse
Experimental: as §1, §9, §2, §3, §4, §5, §6, §7, §8

DU145 cells = experiment: Combination of Example 1 and Metmetlico on the growth of DU145 cells; format: cell-based, human
Experimental: The cells used correspond to metastatic cells of human prostate cancer DU145. 10^5 DU145 cells are incubated in the various wells of a microplate in 1 ml of culture medium. The test compounds are added 4 hours after placing the cells in the wells. After 72 hours, the cells are removed at different times. The cells are washed twice with PBS and recovered directly with 0.1M sodium chloride. The effect on the growth of DU145 cells is measured by protein assay according to the Lowry method (Lowry, O. H., Rosenbrough, […]. and Randall, J. Biol. Chem. 193, 265-275, (1951)) and DNA assay by the Hoechst method (West, […]. and Kumar, S., Anal. Biochem. 147, 289-295, (1985)). The test compounds are the compound of Example 1, metmetlico and a mixture thereof.

[1] = system: normal human prostate cells; experiment: Combination of two compounds of the invention on normal human prostate cells; format: cell-based; conditions: 2 μM
Experimental: 10^5 normal human prostate cells or 10^5 cancerous human prostate cells (DU145) are incubated in various wells of a microplate in 1 ml of culture medium.
The compounds are added 4 hours after placing the cells in the wells.
After 72 hours, the cells are removed at different times. The DU145 cells or the normal cells are washed twice with PBS and recovered directly with 0.1M sodium chloride.
The effect on the growth of the DU145 cells or the normal cells is measured by protein assay according to the Lowry method (Lowry, O. H., Rosenbrough, N. J., Farr, A. L. and Randall, J. Biol. Chem. 193, 265-275, (1951)) and DNA assay by the Hoechst method (West, D. C., Sattar, A. and Kumar, S., Anal. Biochem. 147, 289-295, (1985)).

Structure (SMILES): CSC(=O)C#CC(C)(C)N(C)C [Example 1, S-methyl 4-dimethyl-amino-4-methyl-2-pentynethioate]
- IC50 (BAF3 bcl2 cells): 0.25 µM
- % fragmentation of the DNA of the bcl2 H16 cells (bcl2 H16 cells; 50 μM): 2.15%
- % fragmentation of the DNA of the bcl2 H16 cells (bcl2 H16 cells; 100 μM): 0%
- % fragmentation of the DNA of the bcl2 H16 cells (bcl2 H16 cells; 200 μM): 30.4%
- % fragmentation of the DNA of the bcl2 H16 cells (bcl2 H16 cells; 400 μM): 83.8%
- % fragmentation of the DNA of the bcl2 H16 cells (bcl2 H16 cells; 600 μM): 81.5%
- IC50 (L1210T cells): 1.6 µM
- DNA fragmentation (%) (BAF3-bcl2 G21 cells; G21, 1 μM): 0%
- DNA fragmentation (%) (BAF3-bcl2 G21 cells; G21, 2 μM): 5.8%
- DNA fragmentation (%) (BAF3-bcl2 G21 cells; G21, 4 μM): 29.3%
- DNA fragmentation (%) (BAF3-bcl2 G21 cells; G21, 8 μM): 71.8%
- Inhibition of the growth of the K562 cells (K562 cells): inhibitory effect obtained at the same concentrations on the growth of the K562 cells
- DNA fragmentation (%) (BAF3-bcl2 G18 cells; G18, 1 μM): 0.6%
- DNA fragmentation (%) (BAF3-bcl2 G18 cells; G18, 2 μM): 7.3%
- DNA fragmentation (%) (BAF3-bcl2 G18 cells; G18, 4 μM): 52.7%
- DNA fragmentation (%) (BAF3-bcl2 G18 cells; G18, 8 μM): 84.3%
- % Inhibition of growth of the DU145 cells (DU145 cells; 2 μM): 5.8%
- % Inhibition of growth of the DU145 cells (DU145 cells; 3 μM): 16.1%
- % Inhibition of growth of the DU145 cells (DU145 cells; 4 μM): 22.4%
- % Inhibition of normal human prostate cells [1]: 3.7%
